This note sets out measurements from patent US4927829A, “Heterocyclic compounds and antiulcer agents” (Shionogi & Co., Ltd., priority 1988, dated 1990).

Read-outs that look alike come from different tables or passages of the source.

The test system of data set [1] is stress ulcer. As to the kind of experiment: Effect on stress ulcer (water-immersion restraint), oral. The class given is in vivo, SD rats. As to conditions: Rattus norvegicus, read-out: Inhibition rate (stress ulcer). The procedure:
Male SD rats (body weight: 260-290 g) which had fasted for 24 hours were placed in a wire net-restraint cage and immersed up to the breast in water at 23° C. After 7 hours, the animals were sacrificed, and the stomach were excised. […] The test compound was suspended in 5% gum arabic solution and orally administered 30 minutes before the stress load.
Cimetidine was used as control drug.

Data set [2] concerns mice. As to the kind of experiment: Acute toxicity test, intraperitoneal, mice. As to conditions: n=5-6, up to 500 mg/kg. The class given is in vivo. The text has this: From the above-mentioned results it is evident that the antiulcer activity of the compounds (I) of this invention was about ten times as potent as that of control drug.
Where [3] appears, read: oral, 30 minutes before stress load, male SD rats, 23° C. water immersion, 7 hours.
Setting [4] is: 30 mg/kg, oral, 30 minutes before stress load, male SD rats, 23° C. water immersion, 7 hours.

Take `CCOC(=O)c1cnc2c(SC(=O)N3CCCC3)cccn2c1=O` [Example 16]: in data set [1] (setting [3]), the inhibition in vivo at 3 mg/kg was 40% and the inhibition in vivo at 10 mg/kg is 62%. In addition, the inhibition in vivo at 30 mg/kg in data set [1] (setting [4]) stood at 85%.

On to `CCOC(=O)c1cnc2c(SC(=O)N3CCCCC3)cccn2c1=O` [Example 13], for which, in data set [1] (setting [3]), the inhibition in vivo at 3 mg/kg amounted to 34% and the inhibition in vivo at 10 mg/kg was 70%. Also, in data set [1] (setting [4]), the inhibition in vivo at 30 mg/kg was determined as 81%.

Consider `O=C(Sc1cccn2c(=O)ccnc12)N1CCSCC1` [Example 7], for which, in data set [1] (setting [3]), the inhibition in vivo at 3 mg/kg was determined as 46% and the inhibition in vivo at 10 mg/kg stood at 77%. In data set [1] (setting [4]), the inhibition in vivo at 30 mg/kg turned out to be 71%. For the same compound, the “acute toxicity (dead cases)” value in data set [2] is on record as “no dead case even at a dose of 500 mg/kg”.

Regarding `CN/C(=N/CCSCc1nc[nH]c1C)NC#N` [Cimetidine, reference compound], the inhibition in vivo at 30 mg/kg in data set [1] (po, 7 h) is 56%.

As for `O=C(Sc1cccn2c(=O)ccnc12)N1CCCCC1` [Example 18], in data set [1] (setting [3]), the inhibition in vivo at 3 mg/kg turned out to be 80% and the inhibition in vivo at 10 mg/kg amounted to 76%.

Consider `O=C(Sc1cccn2c(=O)ccnc12)N1CCSC1` [Example 17], for which, in data set [1] (setting [3]), the inhibition in vivo at 3 mg/kg came out at 74% and the inhibition in vivo at 10 mg/kg was 72%. Moreover, the inhibition in vivo at 30 mg/kg in data set [1] (setting [4]) is 70%. Further, in data set [2], the “acute toxicity (dead cases)” value is on record as “no dead case even at a dose of 500 mg/kg”.

For `O=C(Sc1cccn2c(=O)ccnc12)N1CCOCC1` [Example 9], in data set [1] (setting [3]), the inhibition in vivo at 3 mg/kg came out at 33% and the inhibition in vivo at 10 mg/kg was 66%. Further, the inhibition in vivo at 30 mg/kg in data set [1] (setting [4]) was determined as 80%.

On to `O=C(Sc1cccn2c(=O)ccnc12)N1CCCC1` [Example 19], for which, in data set [1] (setting [3]), the inhibition in vivo at 10 mg/kg turned out to be 45%.

Regarding `CCOC(=O)c1cnc2c(SC(=O)N3CCSC3)cccn2c1=O` [Example 14], the inhibition in vivo at 1 mg/kg in data set [1] (1 mg/kg, oral, 30 minutes before stress load, male SD rats, 23° C. water immersion, 7 hours) came to 45%. In data set [1] (setting [3]), the inhibition in vivo at 3 mg/kg was found to be 50% and the inhibition in vivo at 10 mg/kg is 68%. Further, the inhibition in vivo at 30 mg/kg in data set [1] (setting [4]) worked out at 89%. In addition, the “acute toxicity (dead cases)” value in data set [2] was “no dead case even at a dose of 500 mg/kg”.
